Laboratory results: the supplement of paper PMC8882468

Assays:
Test in all cases: CTG-3D luminescence at 96 h relative to day-0 seeding control (ratio to day 0); higher = more growth / less cytotoxicity
HCI-010 = tested on: HCI-010 (organoid from a breast cancer xenograft)
Description: (§1)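 PDX-derived breast cancer organoids (PDxO) in 384-well Matrigel plates, 8-point dose (0.000000625-100 uM), 96 h at 37 C; CellTiter-Glo 3D luminescence normalised to the day-0 seeding control (mean of 4 technical replicates over mean of 4 day-0 wells).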

HCI-011.E2 = tested on: HCI-011.E2 (organoid from an ER-positive breast cancer xenograft)
Description: as §1

HCI-015 = tested on: HCI-015 (organoid from a triple-negative breast cancer xenograft)
Description: as §1

O=c1[nH]cc(F)c(=O)[nH]1 [5-fluorouracil]
CTG-3D luminescence at 96 h
Settings	12.5 pM	0.00025 µM	0.005 µM	0.1 µM	1 µM	10 µM	100 µM	625 fM
HCI-010, days in culture: 52	2.25	2.58	2.49	2.66	2.42	2.48	1.51	2.55
HCI-010, days in culture: 65	1.67	1.68	1.87	1.73	1.83	1.73	1.18	1.66
HCI-010, days in culture: 103	3.85	3.56	3.46	3.56	3.17	2.42	2.1	3.28
HCI-011.E2, days in culture: 74	1.83	2.05	1.91	1.77	2.19	2.63	1.57	1.62
HCI-015, days in culture: 172	2.81	2	2.42	1.81	1.61	1.12	1.03	2.72
HCI-015, days in culture: 191	2.43	1.43	1.71	0.853	1.35	0.995	0.865	1.37
HCI-015, days in culture: 218	1.85	1.55	1.83	1.77	1.51	1.54	0.999	1.81

HCI-011.E2
Settings	CTG-3D luminescence at 96 h
12.5 pM	1.56
0.00025 µM	1.46
0.005 µM	1.7
0.1 µM	1.81
1 µM	1.73
10 µM	2.08
100 µM	1.35
625 fM	1.63
